In this assay the target is T1, Ptch1 (Homo sapiens, UniProt Q13635).
T1 construct: human Ptch1 with C-terminal His-tag, DDM-solubilized from yeast membranes
T1 sequence (Q13635 1-1447): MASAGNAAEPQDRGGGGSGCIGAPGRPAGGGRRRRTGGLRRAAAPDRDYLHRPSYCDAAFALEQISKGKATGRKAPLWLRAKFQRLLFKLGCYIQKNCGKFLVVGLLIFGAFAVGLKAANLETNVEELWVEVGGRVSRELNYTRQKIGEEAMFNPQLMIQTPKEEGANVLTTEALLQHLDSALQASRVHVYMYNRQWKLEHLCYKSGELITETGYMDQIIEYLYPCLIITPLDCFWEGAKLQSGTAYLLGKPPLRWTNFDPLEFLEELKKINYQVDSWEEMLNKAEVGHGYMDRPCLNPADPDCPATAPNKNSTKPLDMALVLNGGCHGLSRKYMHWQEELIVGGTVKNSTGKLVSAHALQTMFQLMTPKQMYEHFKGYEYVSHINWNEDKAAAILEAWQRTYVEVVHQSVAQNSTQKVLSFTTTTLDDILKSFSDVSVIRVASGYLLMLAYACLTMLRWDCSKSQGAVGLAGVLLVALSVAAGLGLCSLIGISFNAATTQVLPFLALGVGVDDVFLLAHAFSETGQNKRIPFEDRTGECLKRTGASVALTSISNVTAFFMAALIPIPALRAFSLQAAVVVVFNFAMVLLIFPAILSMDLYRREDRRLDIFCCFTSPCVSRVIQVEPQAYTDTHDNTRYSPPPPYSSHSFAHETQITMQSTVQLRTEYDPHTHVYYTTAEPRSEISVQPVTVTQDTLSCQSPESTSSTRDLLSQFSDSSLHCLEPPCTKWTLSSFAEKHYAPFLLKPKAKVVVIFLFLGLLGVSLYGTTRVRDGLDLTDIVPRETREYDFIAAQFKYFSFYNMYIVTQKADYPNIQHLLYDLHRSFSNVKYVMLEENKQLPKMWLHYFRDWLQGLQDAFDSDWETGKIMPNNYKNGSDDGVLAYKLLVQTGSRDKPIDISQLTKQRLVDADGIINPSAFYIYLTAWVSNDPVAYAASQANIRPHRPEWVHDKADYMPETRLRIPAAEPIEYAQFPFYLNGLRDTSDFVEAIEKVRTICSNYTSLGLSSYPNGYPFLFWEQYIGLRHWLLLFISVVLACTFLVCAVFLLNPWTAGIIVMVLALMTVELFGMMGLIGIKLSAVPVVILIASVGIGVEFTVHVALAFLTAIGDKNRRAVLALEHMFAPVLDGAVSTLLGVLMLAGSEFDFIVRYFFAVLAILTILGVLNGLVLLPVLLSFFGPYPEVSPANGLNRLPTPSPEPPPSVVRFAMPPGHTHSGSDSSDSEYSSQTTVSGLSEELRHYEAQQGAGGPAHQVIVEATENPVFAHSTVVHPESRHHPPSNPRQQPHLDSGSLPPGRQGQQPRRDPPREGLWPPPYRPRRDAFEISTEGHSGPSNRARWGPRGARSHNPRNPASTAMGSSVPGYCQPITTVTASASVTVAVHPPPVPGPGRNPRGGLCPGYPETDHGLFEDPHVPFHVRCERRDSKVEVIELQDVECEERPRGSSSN
Briefly: microscale thermophoresis on DDM-solubilized membranes from yeast expressing human Ptch1 (His-tag labelled). The format is binding.

pKd: −log10 of the molar value.

The source of these data is paper PMC8037503, “Methiothepin Increases Chemotherapy Efficacy against Resistant Melanoma Cells” (Molecules, 2021).

As for `CSc1ccc2c(c1)C(N1CCN(C)CC1)Cc1ccccc1S2` (stereo not shown) [P375, methiothepin], the pKd (usually the Kd on a negative log10 scale, so that one unit is a factor of ten) was roughly 5.15.
